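Dose response: 5 concentrations. Exposure: 48 h. Format: 96-well plates. Endpoint: linear interpolation; highest concentration if not reached. TGI: concentration producing complete growth inhibition.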
Assays:
Assay in all cases: growth of human tumour cells (NCI), 48 h
[1] = tested on: K-562 leukemia
[2] = tested on: BT-549 breast
[3] = tested on: HT29 colon
[4] = tested on: LOX IMVI melanoma
[5] = tested on: OVCAR-3 ovarian
[6] = tested on: CAKI-1 renal
[7] = tested on: MALME-3M melanoma
[8] = tested on: SK-OV-3 ovarian
[9] = tested on: MOLT-4 leukemia
[10] = tested on: HS 578T breast
[11] = tested on: COLO 205 colon
[12] = tested on: HOP-62 NSCLC
[13] = tested on: 786-0 renal
[14] = tested on: SF-268 CNS
[15] = tested on: SF-295 CNS
[16] = tested on: EKVX NSCLC
[17] = tested on: OVCAR-8 ovarian
[18] = tested on: NCI-H460 lung
[19] = tested on: MCF7 breast
[20] = tested on: SK-MEL-5 melanoma
[21] = tested on: TK-10 renal
[22] = tested on: SK-MEL-2 melanoma
[23] = tested on: SN12C renal
[24] = tested on: T-47D breast
[25] = tested on: NCI/ADR-RES ovarian
[26] = tested on: HOP-92 NSCLC
[27] = tested on: HL-60(TB) leukemia
[28] = tested on: DU-145 prostate
[29] = tested on: SF-539 CNS
[30] = tested on: M14 melanoma
[31] = tested on: SNB-19 CNS
[32] = tested on: A498 renal
[33] = tested on: OVCAR-4 ovarian
[34] = tested on: NCI-H23 lung
[35] = tested on: IGROV1 ovarian
[36] = tested on: HCC-2998 colon
[37] = tested on: SW-620 colon
[38] = tested on: SK-MEL-28 melanoma
[39] = tested on: RPMI-8226 leukemia
[40] = tested on: HCT-15 colon
[41] = tested on: A549 NSCLC
[42] = tested on: OVCAR-5 ovarian
[43] = tested on: HCT-116 colon
[44] = tested on: PC-3 prostate
[45] = tested on: UACC-62 melanoma
[46] = tested on: NCI-H522 lung
[47] = tested on: U251 CNS
[48] = tested on: UO-31 renal
[49] = tested on: SR leukemia
[50] = tested on: CCRF-CEM leukemia
[51] = tested on: SNB-75 CNS
[52] = tested on: RXF 393 renal
[53] = tested on: KM12 colon
[54] = tested on: UACC-257 melanoma
[55] = tested on: MDA-N
[56] = tested on: MDA-MB-231 breast
[57] = tested on: ACHN renal
[58] = tested on: MDA-MB-435
[59] = tested on: NCI-H226 lung
[60] = tested on: DMS 273 small cell lung
[61] = tested on: KM20L2 colon
[62] = tested on: SNB-78 CNS
[63] = tested on: HOP-18 NSCLC
[64] = tested on: DLD-1 colon
[65] = tested on: M19-MEL melanoma
[66] = tested on: DMS 114 small cell lung

Measured: TGI

O=[N+]([O-])c1cc2ccc(N(CCO)CCO)nc2nc1N(CCO)CCO
not listed: [60] | [61] | [62] | [63] | [64] | [65] | [66]
> 100 µM: all other assays above

CC(=O)NNc1nc(C)c(C(=O)/C=C/c2ccc(Cl)cc2)s1
not listed: [2] | [10] | [19] | [23] | [24] | [25] | [28] | [30] | [33] | [40] | [43] | [44] | [49] | [55] | [56] | [58] | [59]
> 100 µM: all other assays above

— PubChem BioAssay (NCI)
